Earlier results on six compounds are cited in patent publication US20030018074A1, “Antiviral composition and treatment method” (priority 2001, published 2003).

The test system of one data set is HSV-2. As to conditions: for EC50: HSV-2, Vero cells, surfactant suspension, read-out: effective concentration required to inhibit plaque formation by 50% (EC50).
For another data set, the system named is HSV-2 virus. The note with it: incubation of HSV-2 with the suspension for 2 hours.
For data set [1], the system named is early viral protein synthesis.
Data set [2] deals with HSV-1 dorsal cutaneous infection. The note with it: 5% in a branch chain ester base; guinea pigs.

Where two headings read alike, the source gives them in different places.

For `CCCCCCCC/C=C/CCCCCCCCCCCCO` [brassidyl alcohol, trans-13-docosen-1-ol], the “cellular toxicity (in words)” value in the data set with Vero cells (compared with erucyl alcohol) is “significantly less than that of erucyl alcohol”.
As for `CCCCCCCC/C=C\CCCCCCCCCCCC(N)=O` [erucamide, cis-13-docosenoamide], the “percent inhibition of plaque formation” value was 34% in the data set on HSV-2 (0.03 mM); 42% with HSV-2 (0.59 mM); 44% with HSV-2 (0.89 mM); 58% with HSV-2 (1.2 mM); 68% with HSV-2 (1.5 mM).
With `CCCCCCCC/C=C\CCCCCCCCCCCCO` [erucyl alcohol, cis-13-docosen-1-ol], in the data set on HSV-2 virus, the “direct virucidal effect (in words)” value was “did not have a direct virucidal effect”. Also, the “cellular toxicity (in words)” value in the data set on Vero cells (1 mM) was “no cellular toxicity was observed”. Also, the “toxicity to Vero cells (in words)” value in the data set on Vero cells (added to cultures at 2-15 mM) was “toxic to Vero cells”. In addition, the EC50 with HSV-2 is 0.15 mM. In addition, in the data set on HSV-2 (concentrations tolerable to the cells (≦1 mM)), the “inhibition of HSV-2 plaque production” value is given as at most 93%. Further, the “EC50 lower than the concentration required for n-docosanol” value with HSV-2 (ratio of EC50 n-docosanol to EC50 erucyl alcohol) was 60 fold.
For the compound `CCCCCCCCCCCCCCCCCCCCCCO` [n-docosanol], the “inhibition of early viral protein synthesis” value in data set [1] is on record as “more than 80%”. In addition, the EC50 with HSV-2 was 9 mM. Besides, the concentrations where effective with HSV-2 (Vero cultures) was 2 to 15 mM.
In the case of `CCCCCCCCCCCCCCCCCCCCCCCCCCCCCCO` [triacontanol, 1-triacontanol], the “efficacy for the treatment of HSV-1 dorsal cutaneous infection (in words)” value in data set [2] is recorded as “a certain amount of efficacy”.
Take `CCCCC/C=C\C/C=C\C/C=C\CCCCCO` [γ-linolenyl alcohol]: in the data set on viruses, the “inactivation of viruses, rank among C14 to C20 unsaturated alcohols (in words)” value is recorded as “most effective”.
